The structures appear in SMILES notation.

Test [1] addresses MAPK14 (human) (UniProt Q16539). As to the kind of experiment: Inhibition of LPS-Induced TNF-alpha Production in Human Peripheral Blood Mononuclear Cell. The settings on record: pbmc.
The target of test [2] is MAPK14 (UniProt Q16539). As to the kind of experiment: Inhibition of MAPK14 Kinase Activity.
The subject of test [3] is MAPK14 (mice). As to the kind of experiment: Inhibition of LPS-Induced TNF-alpha Production in Mice. The settings on record: dose or concentration not given here.

Chain of MAPK14 (human) (Q16539 whole entry, looked up): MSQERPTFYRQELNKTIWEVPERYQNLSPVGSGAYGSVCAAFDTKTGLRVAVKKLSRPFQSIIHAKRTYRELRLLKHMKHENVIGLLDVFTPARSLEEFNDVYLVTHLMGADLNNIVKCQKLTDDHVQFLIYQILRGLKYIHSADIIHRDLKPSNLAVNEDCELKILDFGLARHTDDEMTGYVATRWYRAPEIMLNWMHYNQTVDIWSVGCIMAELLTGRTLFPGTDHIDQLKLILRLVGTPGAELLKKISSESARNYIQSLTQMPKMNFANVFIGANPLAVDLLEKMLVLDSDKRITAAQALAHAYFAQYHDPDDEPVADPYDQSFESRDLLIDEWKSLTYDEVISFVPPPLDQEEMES
Chain of MAPK14 (Q16539 whole entry, looked up): as above

The term IC50 denotes the concentration at which inhibition is half-maximal. Take `Fc1ccc(-c2[nH]c3ccc4[nH]c(Cc5ccccc5)nc4c3c2-c2ccncc2)cc1`: the half-inhibitory concentration (IC50) in test [1] was 60 nM.

As to `C[C@@H](Nc1nccc(-c2c(-c3ccccc3)nc3nc(N)ccn23)n1)c1ccccc1`, the IC50 in test [1] amounted to 2.3 nM. Compared with the last molecule, the IC50 is about 26-fold lower.

Turning to `Nc1ccn2c(-c3ccncc3)c(-c3ccc(F)cc3)nc2n1`, the IC50 in test [1] came out at 40 nM.

Consider `Nc1ccn2c(-c3ccnc(N[C@H]4CCCc5ccccc54)c3)c(-c3ccccc3)nc2n1`, for which, in test [1], the IC50 turned out to be 3 nM. This IC50 lies about 13-fold lower than the previous one.

For the molecule `C[C@H](Nc1cc(-c2c(-c3ccc(F)cc3)nc3nc(N)ccn23)ccn1)c1ccccc1`, the IC50 in test [1] was 2 nM; in test [2], 1 nM.

A word on the inhibition: it is the share of the control response that was lost under treatment. A high value points to a strong effect. The molecule `C[C@H](Nc1nccc(-c2c(-c3ccccc3)nc3nc(N)ccn23)n1)c1ccccc1` gave a 50% inhibitory concentration (IC50) in test [1] of 0.6 nM. The molecule also came in with an inhibition in test [3] of 100%.

Regarding `COC[C@H](C)Nc1cc(-c2c(-c3ccccc3)nc3nc(N)ccn23)ccn1`, in test [1], the concentration for half-maximal inhibition (IC50) is 0.5 nM.

These data come from the Kinase Knowledgebase extract (Sharma et al. 2016).
